Data as given in US20240109925A1, “Enhanced Anti-Proliferative and Antitumor Immune Effects of Mitochondria-Targeted Hydroxyurea” (The Medical College of Wisconsin, Inc., priority 2021, published 2024).
Like-named read-outs stand apart in the source and are kept apart here.

How the values were obtained:
mitochondrial complex I = mitochondrial complex I (Homo sapiens, UniProt O75251+O75306+P03886); assay: Complex I-dependent oxygen consumption (OCR), Seahorse XF-96, HCT116 cells; type: cell-based; details: mean ± SD; HCT116, 24 hr treatment; read-out: IC50 Complex I (FIG. 2)
Method: (§1) FIG. 2. Effects of HU and Mito-HUs on the oxygen consumption by mitochondrial complexes I and III (A) Dose-dependent effects of HU, Mito10-HU, Mito12-HU, Mito14-HU, Mito16-HU, and Mito20-HU on complex I- and complex III-dependent oxygen consumption were measured in HCT116 cells. HCT116 cells were treated with HU or Mito-HUs as indicated for 24 hr. Mitochondrial complex I activity (left) and complex III activity (right) were monitored by a Seahorse XF-96 analyzer. Either rotenone (complex I inhibitor) or antimycin A (complex III inhibitor) was acutely added and OCR assayed immediately. (B) The mitochondrial complex I (left) and III (right) dependent oxygen consumption (calculated as rotenone or antimycin A inhibitable OCR) are plotted against concentration of HU and Mito-HUs. Dashed lines represent the fitting curves used for determination of the IC50 values. Data shown are the means G SD.
(§2) Mitochondrial oxygen consumption was measured using the Seahorse XF-96 Extracellular Flux Analyzer (Agilent, North Billerica, MA) (Cheng et al., 2013, 2016; Boyle et al., 2018; Weinberg and Chandel, 2015). After cells were treated with HU or Mito-HUs for 24 hr, the OCR-based assessment of mitochondrial complex activities was carried out on acutely permeabilized cells in the presence of different mitochondrial substrates, i.e., pyruvate/malate for complex I and duroquinol for complex III (Cheng et al., 2016, 2019; Salabei et al., 2014; Wheaton et al., 2014). Rotenone, malonate, and antimycin A (Sigma-Aldrich, St. Louis, MO) were used as specific inhibitors of mitochondrial complexes I, II, and III, respectively. Briefly, cells that were intact after treatments were immediately permeabilized using the Seahorse XF Plasma Membrane Permeabilizer (Agilent). The mitochondrial complex I-induced OCR was assayed in mannitol and sucrose buffer (Salabei et al., 2014) containing 10 mM pyruvate and 1.5 mM malate (substrates for complex I) and 10 mM malonate (which inhibits complex II activities). The mitochondrial complex III-driven OCR was assayed in a mannitol and sucrose buffer containing 0.5 mM duroquinol (substrate for complex III) as well as […] and 10 mM malonate (which inhibit both complex I and II activities). The IC50 values were determined as previously reported (Cheng et al., 2019).

[1] = target: T1, mitochondrial complex III (Homo sapiens, UniProt P00156+P47985); assay: Complex III-dependent oxygen consumption (OCR), Seahorse XF-96, HCT116 cells; type: cell-based; details: mean ± SD; HCT116, 24 hr treatment; read-out: IC50 Complex III (FIG. 2)
T1 construct: other: mean ± SD; HCT116, 24 hr treatment; Complex III activity (OCR, % of control); other: 0.1 μM, 24 hr, HCT116; n = 4; other: 0.5 μM, 24 hr, HCT116; other: 0.75 μM, 24 hr, HCT116; other: 1 μM, 24 hr, HCT116; Compl
Method: as §1, §2

[2] = test system: mitochondrial complex III; assay: as above; type: cell-based, human; details: 24 hr, HCT116, n = 4
Method: as §1, §2

M-MDSC = assay: In vitro differentiation of MDSCs from bone marrow cells, flow cytometry; type: cell-based, mouse; details: Mus musculus, Bone marrow cell
Text: (§3) FIG. 5. In vitro differentiation of MDSCs and suppressive neutrophils in the presence of different concentrations of Mito14-HU and Mito-HUs with varying hydrophobicities (A) Scheme of differentiation of MDSCs. (B) Representative flow cytometry contour plots of in vitro differentiation of MDSCs under varying concentrations of Mito14-HU using FlowJo Software (FlowJo Software, 2019). (C) Summary data depicting distribution of MDSCs after three days treatment with Mito14-HU generated from panel (B). (D and E) (D) Dose-dependent effects of Mito-HUs with different side chain lengths on M-MDSC and (E) suppressive neutrophils. Dashed lines represent the fitting curves used for determination of the IC50 values. Data shown are the means & SD.
(§4) MDSCs were generated from bone marrow cells isolated from C57b1/6 mice and cultured at a density of 1 3 10^6 cells/ml in RPMI with 10% fetal bovine serum and 25 ng/ml recombinant mouse GM-CSF (Shenandoah Biotechnology, Inc.) and 25 ng/ml recombinant mouse IL-6 (Shenandoah Biotechnology, Inc.) for three days. Then, cells were re-cultured in fresh media with inhibitors for an additional three days. Cells were scraped and examined by flow cytometry using the following markers: FITC-anti Ly6C (Biolegend, San Diego, CA), PE-Cy7 anti F4/80 (Biolegend), APC-Cy7 anti Ly6G (Biolegend), and Pacific Blue anti-CD11b (Biolegend). A gating strategy similar to that employed for the T cells was used in all MDSC differentiation assays, which were tested only on live cells after treatments. Flow cytometry data were acquired using a BD Celesta flow cytometer (BD Biosciences), and data were analyzed using FlowJo software (Treestar, Inc.).

suppressive neutrophils = assay: as above; type: cell-based, mouse; details: Mus musculus, Neutrophil, 72 h, read-out: IC50 Suppressive Neutrophils (FIG. 6)
Text: as §3, §4

NC(=O)NOCCCCCCCCCCCCCCCCCCCC[P+](c1ccccc1)(c1ccccc1)c1ccccc1.O=C([O-])C(F)(F)F [Mito20-HU, 20-[(carbamoylamino)oxy]-eicosanyltriphenylphosphonium trifluoroacetate]
IC50 (mitochondrial complex I): 800 ± 60 nM | IC50 [1]: 4200 ± 400 nM | Complex III activity (OCR, % of control) ([2]; 0.03 μM): 98.80 % of control | Complex III activity (OCR, % of control) ([2]; 0.1 μM): 106.63 % of control | Complex III activity (OCR, % of control) ([2]; 0.2 μM): 101.11 % of control | Complex III activity (OCR, % of control) ([2]; 0.3 μM): 107.99 % of control | Complex III activity (OCR, % of control) ([2]; 0.5 μM): 102.43 % of control | Complex III activity (OCR, % of control) ([2]; 20 μM): 12.77 % of control | IC50 (M-MDSC; 72 h, read-out: IC50 M-MDSC (FIG. 6)): 440 ± 90 nM | IC50 (M-MDSC; read-out: IC50 frequency of M-MDSCs): 440 nM | IC50 (suppressive neutrophils): > 1000 nM
